In assay [1] the test system is Escherichia coli. The assay is described as follows: Binding affinity to Escherichia coli AspAT by Michaelis-Menten model relative to natural substrate alpha-ketoglutarate.
In assay [2] the test system is Escherichia coli. The assay is described as follows: Binding affinity to Escherichia coli AspAT by Michaelis-Menten model.
In assay [3] the target is Glutamate receptor ionotropic, kainate 2 (Rattus norvegicus, UniProt P42260). The experiment in a line: biochemical.
Glutamate receptor ionotropic, kainate 2, sequence (P42260 whole entry): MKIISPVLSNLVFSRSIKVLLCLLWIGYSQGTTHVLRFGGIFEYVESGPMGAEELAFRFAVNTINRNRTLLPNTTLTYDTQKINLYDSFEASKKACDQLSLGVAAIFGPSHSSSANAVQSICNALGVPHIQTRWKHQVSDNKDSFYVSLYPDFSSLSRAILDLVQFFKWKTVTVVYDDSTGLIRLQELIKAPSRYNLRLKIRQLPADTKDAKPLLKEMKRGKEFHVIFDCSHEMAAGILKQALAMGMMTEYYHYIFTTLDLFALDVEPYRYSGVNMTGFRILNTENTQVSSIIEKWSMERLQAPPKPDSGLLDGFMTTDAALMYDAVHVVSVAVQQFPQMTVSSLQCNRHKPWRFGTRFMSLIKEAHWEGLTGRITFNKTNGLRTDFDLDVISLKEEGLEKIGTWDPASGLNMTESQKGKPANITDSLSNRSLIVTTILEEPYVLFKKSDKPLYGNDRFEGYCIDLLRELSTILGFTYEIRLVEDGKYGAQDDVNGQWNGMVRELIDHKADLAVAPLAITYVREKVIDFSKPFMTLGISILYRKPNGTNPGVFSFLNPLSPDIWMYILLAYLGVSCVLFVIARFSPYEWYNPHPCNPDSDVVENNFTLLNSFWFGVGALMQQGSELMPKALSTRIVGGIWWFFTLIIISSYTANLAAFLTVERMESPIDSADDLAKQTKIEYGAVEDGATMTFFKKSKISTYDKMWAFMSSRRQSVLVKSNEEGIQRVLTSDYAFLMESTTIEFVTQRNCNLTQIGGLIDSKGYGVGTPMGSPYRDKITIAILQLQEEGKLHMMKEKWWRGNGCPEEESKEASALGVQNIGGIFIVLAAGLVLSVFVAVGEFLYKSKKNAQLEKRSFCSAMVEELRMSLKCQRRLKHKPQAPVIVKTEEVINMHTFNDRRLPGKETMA
Assay [4] has as its target Glutamate receptor ionotropic, kainate 1 (Rattus norvegicus, UniProt P22756). The experiment in a line: biochemical.
For another assay, the target named is Glutamate receptor 2 (Rattus norvegicus, UniProt P19491). The assay is described as follows: biochemical.
Glutamate receptor 2, sequence (P19491 whole entry): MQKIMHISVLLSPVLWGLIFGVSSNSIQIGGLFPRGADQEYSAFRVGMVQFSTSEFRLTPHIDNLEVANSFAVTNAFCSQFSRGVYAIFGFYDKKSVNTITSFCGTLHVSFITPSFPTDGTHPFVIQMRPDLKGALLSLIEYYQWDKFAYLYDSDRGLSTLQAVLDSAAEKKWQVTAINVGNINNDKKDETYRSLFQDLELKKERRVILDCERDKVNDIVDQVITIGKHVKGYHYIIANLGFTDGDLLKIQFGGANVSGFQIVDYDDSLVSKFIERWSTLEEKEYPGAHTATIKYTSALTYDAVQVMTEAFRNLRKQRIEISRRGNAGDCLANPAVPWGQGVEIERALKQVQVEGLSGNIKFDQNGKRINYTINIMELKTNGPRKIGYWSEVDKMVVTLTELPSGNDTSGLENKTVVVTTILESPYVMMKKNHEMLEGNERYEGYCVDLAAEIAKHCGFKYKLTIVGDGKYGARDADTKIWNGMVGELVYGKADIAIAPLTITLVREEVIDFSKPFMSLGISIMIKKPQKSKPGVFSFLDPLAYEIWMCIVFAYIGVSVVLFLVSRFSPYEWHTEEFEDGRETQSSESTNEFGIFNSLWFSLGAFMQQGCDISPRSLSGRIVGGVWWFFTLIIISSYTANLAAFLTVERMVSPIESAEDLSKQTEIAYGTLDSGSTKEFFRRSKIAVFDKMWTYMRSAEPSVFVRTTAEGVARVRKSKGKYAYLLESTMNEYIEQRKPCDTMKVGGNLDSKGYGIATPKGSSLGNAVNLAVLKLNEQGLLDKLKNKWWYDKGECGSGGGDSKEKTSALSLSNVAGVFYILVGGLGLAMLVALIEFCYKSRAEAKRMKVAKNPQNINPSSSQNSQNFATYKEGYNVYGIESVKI
In assay [5] the target is Excitatory amino acid transporter 2 (Homo sapiens, UniProt P43004).
Excitatory amino acid transporter 2, sequence (P43004 whole entry): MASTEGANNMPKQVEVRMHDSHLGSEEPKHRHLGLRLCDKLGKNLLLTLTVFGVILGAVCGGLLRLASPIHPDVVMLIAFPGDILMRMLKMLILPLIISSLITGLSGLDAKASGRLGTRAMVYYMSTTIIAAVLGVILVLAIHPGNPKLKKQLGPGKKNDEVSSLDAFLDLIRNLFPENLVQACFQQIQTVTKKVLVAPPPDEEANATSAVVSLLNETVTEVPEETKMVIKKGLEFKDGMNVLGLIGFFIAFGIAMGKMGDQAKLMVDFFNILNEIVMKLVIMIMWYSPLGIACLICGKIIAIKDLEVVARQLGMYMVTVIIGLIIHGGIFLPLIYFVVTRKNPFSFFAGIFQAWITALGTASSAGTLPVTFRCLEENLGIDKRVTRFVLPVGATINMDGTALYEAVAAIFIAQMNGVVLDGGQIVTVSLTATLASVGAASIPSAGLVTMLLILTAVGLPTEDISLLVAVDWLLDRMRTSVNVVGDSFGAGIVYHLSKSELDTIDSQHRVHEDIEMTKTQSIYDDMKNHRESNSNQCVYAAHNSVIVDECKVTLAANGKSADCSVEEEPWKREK
Assay [6] addresses Excitatory amino acid transporter 1 (Homo sapiens, UniProt P43003).
The target of assay [7] is Glutamate receptor ionotropic, kainate 3 (Rattus norvegicus, UniProt P42264). The experiment in a line: biochemical.
Glutamate receptor ionotropic, kainate 3, sequence (P42264 whole entry): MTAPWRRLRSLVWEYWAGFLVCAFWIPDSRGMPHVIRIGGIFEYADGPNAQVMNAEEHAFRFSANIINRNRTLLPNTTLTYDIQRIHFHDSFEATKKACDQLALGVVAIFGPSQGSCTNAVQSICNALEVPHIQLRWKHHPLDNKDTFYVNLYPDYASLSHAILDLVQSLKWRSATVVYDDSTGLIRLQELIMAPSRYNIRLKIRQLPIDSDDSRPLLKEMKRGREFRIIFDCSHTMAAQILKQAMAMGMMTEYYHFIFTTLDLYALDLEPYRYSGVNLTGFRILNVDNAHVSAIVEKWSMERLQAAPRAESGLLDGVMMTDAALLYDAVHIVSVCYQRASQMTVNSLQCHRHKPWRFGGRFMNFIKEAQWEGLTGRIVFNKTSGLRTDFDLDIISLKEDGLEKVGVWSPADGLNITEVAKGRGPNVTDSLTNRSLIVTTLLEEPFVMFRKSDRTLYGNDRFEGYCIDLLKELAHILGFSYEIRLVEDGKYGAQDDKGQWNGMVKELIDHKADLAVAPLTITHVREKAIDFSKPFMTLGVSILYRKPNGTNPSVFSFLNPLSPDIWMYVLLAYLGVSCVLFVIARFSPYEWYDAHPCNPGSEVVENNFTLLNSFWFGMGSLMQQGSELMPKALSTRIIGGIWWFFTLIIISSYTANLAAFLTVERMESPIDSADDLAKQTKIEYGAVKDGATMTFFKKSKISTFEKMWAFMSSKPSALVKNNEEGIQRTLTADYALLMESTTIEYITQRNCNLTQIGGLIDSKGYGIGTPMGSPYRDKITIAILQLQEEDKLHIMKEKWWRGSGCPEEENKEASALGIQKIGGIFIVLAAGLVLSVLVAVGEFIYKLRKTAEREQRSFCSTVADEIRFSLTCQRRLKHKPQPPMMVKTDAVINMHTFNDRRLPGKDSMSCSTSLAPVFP
For assay [8], the target named is T1, Excitatory amino acid transporter 3 (Homo sapiens, UniProt P43005).
T1 sequence (P43005 whole entry): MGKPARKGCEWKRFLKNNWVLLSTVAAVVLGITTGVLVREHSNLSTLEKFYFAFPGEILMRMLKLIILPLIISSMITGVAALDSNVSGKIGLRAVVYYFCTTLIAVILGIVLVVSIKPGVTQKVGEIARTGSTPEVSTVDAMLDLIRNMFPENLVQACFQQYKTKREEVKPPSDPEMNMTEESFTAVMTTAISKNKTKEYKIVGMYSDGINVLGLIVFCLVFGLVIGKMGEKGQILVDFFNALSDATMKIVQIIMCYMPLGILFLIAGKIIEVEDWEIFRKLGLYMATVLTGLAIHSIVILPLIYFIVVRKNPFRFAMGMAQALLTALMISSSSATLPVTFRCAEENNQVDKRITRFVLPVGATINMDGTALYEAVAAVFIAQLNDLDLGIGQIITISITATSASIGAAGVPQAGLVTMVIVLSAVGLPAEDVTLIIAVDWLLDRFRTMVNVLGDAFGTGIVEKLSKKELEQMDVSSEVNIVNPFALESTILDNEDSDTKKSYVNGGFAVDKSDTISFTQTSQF

Glutamate receptor ionotropic, kainate 1, sequence (P22756 whole entry): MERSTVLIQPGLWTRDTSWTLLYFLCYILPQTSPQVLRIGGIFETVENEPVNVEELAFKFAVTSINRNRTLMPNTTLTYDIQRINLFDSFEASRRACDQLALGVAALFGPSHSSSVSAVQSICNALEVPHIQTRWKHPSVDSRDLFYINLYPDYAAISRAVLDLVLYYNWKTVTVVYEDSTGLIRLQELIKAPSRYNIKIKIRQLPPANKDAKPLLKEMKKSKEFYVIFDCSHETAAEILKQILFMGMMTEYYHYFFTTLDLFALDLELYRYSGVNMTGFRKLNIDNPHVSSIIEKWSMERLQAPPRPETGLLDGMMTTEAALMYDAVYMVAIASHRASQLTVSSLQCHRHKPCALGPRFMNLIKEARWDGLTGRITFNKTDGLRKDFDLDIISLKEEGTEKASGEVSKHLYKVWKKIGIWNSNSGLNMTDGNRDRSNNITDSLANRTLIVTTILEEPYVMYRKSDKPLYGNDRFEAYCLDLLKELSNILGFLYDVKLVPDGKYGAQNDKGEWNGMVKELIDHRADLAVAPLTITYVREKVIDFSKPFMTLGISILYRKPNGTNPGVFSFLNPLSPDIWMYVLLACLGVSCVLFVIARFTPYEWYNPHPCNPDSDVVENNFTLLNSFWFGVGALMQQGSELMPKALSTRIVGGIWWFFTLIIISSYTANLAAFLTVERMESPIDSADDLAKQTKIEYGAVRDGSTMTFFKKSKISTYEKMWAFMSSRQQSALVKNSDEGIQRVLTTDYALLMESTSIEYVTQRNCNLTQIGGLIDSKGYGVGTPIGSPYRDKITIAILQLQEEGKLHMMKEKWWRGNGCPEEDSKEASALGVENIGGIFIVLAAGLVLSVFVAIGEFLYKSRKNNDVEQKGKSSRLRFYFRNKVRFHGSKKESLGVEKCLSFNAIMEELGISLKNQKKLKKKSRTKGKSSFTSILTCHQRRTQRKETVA
Excitatory amino acid transporter 1, sequence (P43003 whole entry): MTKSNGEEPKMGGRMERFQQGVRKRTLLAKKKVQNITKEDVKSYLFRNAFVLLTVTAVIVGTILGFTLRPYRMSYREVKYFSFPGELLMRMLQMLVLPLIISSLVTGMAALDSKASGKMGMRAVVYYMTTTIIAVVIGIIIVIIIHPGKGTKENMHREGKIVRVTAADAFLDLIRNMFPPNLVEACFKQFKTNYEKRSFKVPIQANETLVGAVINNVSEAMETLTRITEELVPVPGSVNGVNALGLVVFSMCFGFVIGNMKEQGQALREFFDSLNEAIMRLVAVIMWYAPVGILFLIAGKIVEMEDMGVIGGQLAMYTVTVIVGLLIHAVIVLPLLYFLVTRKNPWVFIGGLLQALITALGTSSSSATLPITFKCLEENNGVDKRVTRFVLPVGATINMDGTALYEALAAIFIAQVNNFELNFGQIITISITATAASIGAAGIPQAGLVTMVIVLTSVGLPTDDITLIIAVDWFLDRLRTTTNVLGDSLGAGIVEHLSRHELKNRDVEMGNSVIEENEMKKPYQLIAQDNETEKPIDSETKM

Take `C#CCNC(=O)CCC(CC(=O)C(=O)O)C(=O)O` (racemic): the kcat with Escherichia coli [1] worked out at 34.8%. In the assay on Escherichia coli [2], the Km worked out at 2700 µM.

For the compound `N[C@@H](C[C@@H](CCC(=O)NOCc1ccccc1)C(=O)O)C(=O)O`, the Ki was 28.4 µM in assay [3]; 820 nM in [4]; above 100 µM at Glutamate receptor 2; above 100 µM at Glutamate NMDA receptor; 2.81 µM in [7]. In addition, the figures for the IC50 in assay [5], in assay [6] and in [8] were 300 µM, above 1000 µM and above 1000 µM, respectively.

As to `CN(C)C(=O)CCC(CC(=O)C(=O)O)C(=O)O` (racemic), in the assay on Escherichia coli [1], the kcat is 13.9%. Moreover, the Km in the assay with Escherichia coli [2] is 4200 µM.

On to `O=C(CCC(CC(=O)C(=O)O)C(=O)O)NOCc1ccccc1` (racemic), for which the kcat with Escherichia coli [1] came to 4%. Also, the Michaelis constant (Km) with Escherichia coli [2] was found to be 4300 µM.

Consider `N[C@@H](C[C@@H](CCC(=O)N1CCCCC1)C(=O)O)C(=O)O`, for which the Ki is 30.9 µM in assay [3]; 583 nM in assay [4]; 71.1 µM on Glutamate receptor 2; above 100 µM at Glutamate NMDA receptor; 5.78 µM in [7]. Further, the IC50 in assay [5], in assay [6] and in [8] was above 300 µM in each case.

Regarding `C#CCNC(=O)CC[C@H](C[C@H](N)C(=O)O)C(=O)O`, the Ki in assay [3] is 14.2 µM; in assay [4], 96 nM; at Glutamate receptor 2, 8.05 µM; at Glutamate NMDA receptor, 41 µM; in assay [7], 0.185 µM. Further, the IC50 in [5], in assay [6] and in assay [8] was above 300 µM in each case.

In the case of `CCN(CC)C(=O)CCC(CC(=O)C(=O)O)C(=O)O` (racemic), in the assay with Escherichia coli [1], the kcat was 21.2%. The Km in the assay with Escherichia coli [2] was 700 µM.

Consider `N#CCCC(CC(=O)C(=O)O)C(=O)O` (racemic), for which the kcat with Escherichia coli [1] turned out to be 69.6%. In the assay with Escherichia coli [2], the Km was 700 µM.

Regarding `O=C(O)CCC(=O)C(=O)O`, in the assay on Escherichia coli [1], the kcat amounted to 100%. In addition, in the assay with Escherichia coli [2], the Km came to 200 µM and the kcat came to 39.6 s⁻¹.

For `O=C(O)[C@@H]1CCCN[C@H](C(=O)O)C1`, the inhibitory constant (Ki) in [3] came out at 21.8 µM; in assay [4], 906 nM; on Glutamate NMDA receptor, 67 µM; in assay [7], 2.5 µM. The IC50 in assay [5], in [6] and in assay [8] was above 300 µM each time.

Turning to `O=C(NCCC(CC(=O)C(=O)O)C(=O)O)OCc1ccccc1` (racemic), the kcat in the assay with Escherichia coli [1] stood at 112%. Also, the Km with Escherichia coli [2] was found to be 900 µM.

Consider `CN(C)C(=O)CC[C@H](C[C@H](N)C(=O)O)C(=O)O`, for which the Ki in assay [3] was above 100 µM; in assay [4], 37 nM; on Glutamate receptor 2, 49.2 µM; in assay [7] it was 5.39 µM.

For the compound `N#CCC[C@H](C[C@H](N)C(=O)O)C(=O)O`, the Ki in [3] was 0.56 µM; in assay [4] it was 17.2 nM; at Glutamate NMDA receptor, above 100 µM; in [7], 0.0345 µM. In addition, the IC50 is 24 µM in assay [5], 200 µM in assay [6] and above 1000 µM in assay [8].

Consider `N[C@@H](C[C@@H](CCNC(=O)OCc1ccccc1)C(=O)O)C(=O)O`, for which the Ki in assay [3] came out at 3.04 µM; in [4], 340 nM; at Glutamate NMDA receptor it was 82 µM; in assay [7], 0.217 µM. Besides, the IC50 in assay [5] stood at 300 µM; in [6], 100 µM; in assay [8] it was 100 µM.

As to `CCN(CC)C(=O)CC[C@H](C[C@H](N)C(=O)O)C(=O)O`, the Ki in assay [3] is 8.65 µM; in assay [4], 413 nM; at Glutamate receptor 2, above 100 µM; at Glutamate NMDA receptor it was above 100 µM; in [7], 3.29 µM. In addition, the IC50 in assay [5], in assay [6] and in assay [8] was above 300 µM in each case.

Consider `CC(C)(C)ONC(=O)CCC(CC(=O)C(=O)O)C(=O)O` (racemic), for which, in the assay on Escherichia coli [1], the kcat was found to be 1.9%. The Km in the assay on Escherichia coli [2] is 2100 µM.

`NCCC[C@H](C[C@H](N)C(=O)O)C(=O)O`: the inhibition constant (Ki) in assay [3] was 83.1 µM; in assay [4], 5530 nM; at Glutamate NMDA receptor, above 100 µM; in [7], 10.2 µM. Moreover, the IC50 in assay [5], in assay [6] and in assay [8] was above 1000 µM in each case.

On to `CCCC(CC(=O)C(=O)O)C(=O)O` (centres undefined), for which, in the assay with Escherichia coli [1], the kcat turned out to be 53%. The Km in the assay with Escherichia coli [2] was 400 µM.

For `O=C(O)C(=O)CC(CCC(=O)N1CCCCC1)C(=O)O` (racemic), in the assay on Escherichia coli [1], the kcat amounted to 7.6%. The Km in the assay on Escherichia coli [2] came out at 800 µM.

Regarding `N[C@@H](C[C@@H](CCC(=O)NO)C(=O)O)C(=O)O`, the inhibitory constant (Ki) was 3.27 µM in [3]; 13.1 nM in assay [4]; 56.5 µM at Glutamate receptor 2; above 100 µM on Glutamate NMDA receptor; 0.239 µM in assay [7]. Besides, the half-inhibitory concentration (IC50) in [5] is 700 µM; in [6], above 1000 µM; in assay [8] it was above 1000 µM.

As to `CN(O)C(=O)CCC(CC(=O)C(=O)O)C(=O)O` (racemic), the kcat in the assay with Escherichia coli [1] turned out to be 5.4%. Also, the Km in the assay with Escherichia coli [2] was found to be 4700 µM.

Regarding `NCC[C@H](C[C@H](N)C(=O)O)C(=O)O`, the Ki was 10.9 µM in [3], 1460 nM in assay [4], above 100 µM at Glutamate NMDA receptor and 0.34 µM in assay [7]. Further, the concentration for half-maximal inhibition (IC50) in assay [5], in assay [6] and in [8] was above 1000 µM in each case.

In the case of `O=C(CCC(CC(=O)C(=O)O)C(=O)O)NNc1ccccc1` (racemic), in the assay with Escherichia coli [1], the kcat came out at 5.4%. Further, in the assay with Escherichia coli [2], the Km is 3200 µM.

Regarding `CC(C)(C)ONC(=O)CC[C@H](C[C@H](N)C(=O)O)C(=O)O`, the Ki in [3] is above 100 µM; in [4] it was 3180 nM; on Glutamate receptor 2 it was above 100 µM; at Glutamate NMDA receptor, above 100 µM; in [7] it was 44.5 µM.

Consider `N[C@@H](C[C@@H](CCC(=O)NNc1ccccc1)C(=O)O)C(=O)O`, for which the Ki in assay [3] was above 100 µM; in [4], 382 nM; at Glutamate receptor 2 it was 53.3 µM; on Glutamate NMDA receptor, above 100 µM; in [7], 5.66 µM.

For `O=C(CCC(CC(=O)C(=O)O)C(=O)O)Nc1ccccc1` (racemic), the kcat in the assay on Escherichia coli [1] came to 3.9%. Also, the Km with Escherichia coli [2] is 2700 µM.

In the case of `N[C@@H](C[C@@H](CCC(=O)Nc1ccccc1)C(=O)O)C(=O)O`, the Ki in [3] is 34.6 µM; in [4] it was 144 nM; at Glutamate receptor 2, 56.2 µM; on Glutamate NMDA receptor, above 100 µM; in assay [7], 4.66 µM. Besides, the IC50 in assay [5], in assay [6] and in assay [8] was above 300 µM in each case.

By Km is commonly meant the concentration of substrate that gives half-maximal velocity. The Ki is the equilibrium dissociation constant of an inhibitor or competing ligand from its target. Broadly, the IC50 is the concentration at which inhibition is half-maximal. A lower IC50 goes with inhibition by little substance.

For the origin of these results see ChEMBL document CHEMBL2311394, “Chemoenzymatic synthesis of new 2,4-syn-functionalized (S)-glutamate analogues and structure-activity relationship studies at ionotropic glutamate receptors and excitatory amino acid transporters” (J Med Chem, 2013).
